Measurements reported in patent US11427558B1, “Indazoles and azaindazoles as LRRK2 inhibitors” (ESCAPE Bio, Inc., priority 2019, dated 2022).

Legend:
[1] = target: Recombinant G2019S-LRRK2 protein (Homo sapiens (Human), UniProt Q5S007, G2019S); assay: LRRK2 kinase activity, LanthaScreen TR-FRET assay (G2019S); assay type: biochemical; conditions: LRRKtide 400 nM, 25 μM ATP, 60 min
Procedure: (§1) LRRK2 kinase activity was measured using a LanthaScreen™ Kinase Activity Assay from ThermoFisher Scientific. Recombinant wild type or G2019S-LRRK2 protein (Life Technologies, PR8604B or PV4881, respectively), was incubated with a fluorescein-labeled peptide substrate called LRRKtide that is based upon ezrin/radixin/moesin (ERM) (Life Technologies, PV4901) in the presence of ATP and serially diluted compound. […] Compound-dependent inhibition of the TR-FRET signal was used to generate a concentration-response curve for IC50 determination.
(§2) After 60 min incubation at room temperature, the reaction was stopped by addition of 10 μL of 2× stop solution containing a final concentration of 2 nM anti-pERM antibody and 10 mM EDTA. […] The ratio of the 520 nm and 495 nm emission was used to analyze the data.

[2] = target: Recombinant wild type LRRK2 protein (Homo sapiens (Human), UniProt Q5S007); assay: LRRK2 kinase activity, LanthaScreen TR-FRET assay (wild type); assay type: biochemical; conditions: LRRKtide 400 nM, 25 μM ATP, 60 min; read-out: LRRK2 WT IC50
Procedure: as §1, §2

Chain of Recombinant G2019S-LRRK2 protein (Q5S007 whole entry G2019S): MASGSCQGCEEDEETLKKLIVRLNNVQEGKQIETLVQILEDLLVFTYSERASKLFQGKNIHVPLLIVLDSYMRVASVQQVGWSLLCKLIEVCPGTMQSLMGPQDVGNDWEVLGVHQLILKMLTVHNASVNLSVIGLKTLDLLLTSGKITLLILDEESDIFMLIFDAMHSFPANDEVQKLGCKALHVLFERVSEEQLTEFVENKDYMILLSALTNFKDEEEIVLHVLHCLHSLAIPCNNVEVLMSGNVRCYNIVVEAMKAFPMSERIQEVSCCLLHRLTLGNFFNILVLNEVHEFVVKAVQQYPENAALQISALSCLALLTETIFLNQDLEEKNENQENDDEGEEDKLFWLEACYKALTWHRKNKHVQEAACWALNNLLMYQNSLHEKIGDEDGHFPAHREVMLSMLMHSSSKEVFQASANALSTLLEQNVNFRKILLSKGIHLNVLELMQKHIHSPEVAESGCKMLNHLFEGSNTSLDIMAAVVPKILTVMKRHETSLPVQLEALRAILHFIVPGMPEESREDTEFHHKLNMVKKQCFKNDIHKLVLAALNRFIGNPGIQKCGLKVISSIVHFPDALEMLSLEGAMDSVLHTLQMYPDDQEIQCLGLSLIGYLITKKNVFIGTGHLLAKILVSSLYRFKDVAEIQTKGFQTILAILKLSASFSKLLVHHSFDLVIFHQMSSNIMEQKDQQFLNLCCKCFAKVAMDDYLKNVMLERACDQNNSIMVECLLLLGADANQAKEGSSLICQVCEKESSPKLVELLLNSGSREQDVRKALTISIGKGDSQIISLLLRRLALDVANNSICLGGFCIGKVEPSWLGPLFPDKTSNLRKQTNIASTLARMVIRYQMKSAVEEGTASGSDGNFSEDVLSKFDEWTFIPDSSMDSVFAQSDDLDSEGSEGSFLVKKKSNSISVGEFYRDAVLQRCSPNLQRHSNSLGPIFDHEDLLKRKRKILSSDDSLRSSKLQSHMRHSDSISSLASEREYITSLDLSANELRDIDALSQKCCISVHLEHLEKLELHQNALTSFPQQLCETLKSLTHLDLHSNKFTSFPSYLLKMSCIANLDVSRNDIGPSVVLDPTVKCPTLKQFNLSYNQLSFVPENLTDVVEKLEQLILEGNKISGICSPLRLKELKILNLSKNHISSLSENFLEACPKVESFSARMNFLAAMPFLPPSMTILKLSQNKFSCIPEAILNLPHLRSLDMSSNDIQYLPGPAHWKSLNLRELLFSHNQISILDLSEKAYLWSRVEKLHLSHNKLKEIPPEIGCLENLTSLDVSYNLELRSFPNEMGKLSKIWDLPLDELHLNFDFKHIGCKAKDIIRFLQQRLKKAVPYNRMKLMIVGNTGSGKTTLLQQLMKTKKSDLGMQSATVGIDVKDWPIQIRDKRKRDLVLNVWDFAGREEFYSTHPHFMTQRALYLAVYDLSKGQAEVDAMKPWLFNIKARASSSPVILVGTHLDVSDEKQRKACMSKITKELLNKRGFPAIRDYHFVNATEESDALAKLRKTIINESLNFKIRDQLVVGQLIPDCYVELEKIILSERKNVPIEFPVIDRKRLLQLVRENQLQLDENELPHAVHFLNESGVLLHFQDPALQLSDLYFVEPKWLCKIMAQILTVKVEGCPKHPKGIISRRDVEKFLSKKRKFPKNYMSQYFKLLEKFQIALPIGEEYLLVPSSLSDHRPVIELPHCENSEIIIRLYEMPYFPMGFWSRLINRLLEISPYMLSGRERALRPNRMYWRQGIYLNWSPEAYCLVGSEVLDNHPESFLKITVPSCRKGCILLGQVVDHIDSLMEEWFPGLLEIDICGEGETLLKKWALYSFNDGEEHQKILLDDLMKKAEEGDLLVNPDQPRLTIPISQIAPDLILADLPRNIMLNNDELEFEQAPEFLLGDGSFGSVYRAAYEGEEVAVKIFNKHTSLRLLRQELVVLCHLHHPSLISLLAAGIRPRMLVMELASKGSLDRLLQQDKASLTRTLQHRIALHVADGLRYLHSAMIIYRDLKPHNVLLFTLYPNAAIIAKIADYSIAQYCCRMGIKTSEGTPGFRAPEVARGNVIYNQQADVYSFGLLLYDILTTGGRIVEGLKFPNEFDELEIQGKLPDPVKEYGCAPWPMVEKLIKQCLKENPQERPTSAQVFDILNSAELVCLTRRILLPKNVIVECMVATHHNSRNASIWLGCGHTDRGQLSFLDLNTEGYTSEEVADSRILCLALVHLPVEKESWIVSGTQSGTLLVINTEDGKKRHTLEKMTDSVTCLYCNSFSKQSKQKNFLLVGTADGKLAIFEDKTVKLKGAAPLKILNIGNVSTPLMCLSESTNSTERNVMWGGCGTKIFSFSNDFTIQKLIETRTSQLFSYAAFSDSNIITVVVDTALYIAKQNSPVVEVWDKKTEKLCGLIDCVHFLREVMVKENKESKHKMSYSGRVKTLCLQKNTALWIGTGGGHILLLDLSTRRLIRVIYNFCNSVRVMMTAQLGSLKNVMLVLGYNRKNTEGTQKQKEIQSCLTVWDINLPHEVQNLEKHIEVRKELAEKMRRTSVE
Chain of Recombinant wild type LRRK2 protein (Q5S007 whole entry): as the sequence (Q5S007 whole entry G2019S) above, with S2019G counted along it

| SMILES | IC50 [1] | IC50 [2] |
| --- | --- | --- |
| Cc1cc(C#N)cnc1C(=O)Nc1ccc2[nH]nc(-c3cccc(N(C)C)c3)c2c1 [Example 30, 5-Cyano-N-(3-(3-(dimethylamino)phenyl)-1H-indazol-5-yl)-3-methylpicolinamide] | < 100 nM | 100 to 1000 nM |
| Cc1cc(C#N)cnc1C(=O)Nc1ccc2[nH]nc(-c3ccncc3)c2c1 [Example 31, 5-Cyano-3-methyl-N-(3-(pyridin-4-yl)-1H-indazol-5-yl)picolinamide] | < 100 nM | 100 to 1000 nM |
| Cc1cc(C#N)cnc1C(=O)Nc1ccc2[nH]nc(-c3cnn(C(F)F)c3)c2c1 [Example 32, 5-Cyano-N-(3-(1-(difluoromethyl)-1H-pyrazol-4-yl)-1H-indazol-5-yl)-3-methylpicolinamide] | < 100 nM | 100 to 1000 nM |
| Cc1cc(C#N)cnc1C(=O)Nc1ccc2[nH]nc(-c3cnn(C4CCOCC4)c3)c2c1 [Example 33, 5-cyano-3-methyl-N-(3-(1-(tetrahydro-2H-pyran-4-yl)-1H-pyrazol-4-yl)-1H-indazol-5-yl)picolinamide] | < 100 nM | < 100 nM |
| Cc1cc(C#N)cnc1C(=O)Nc1ccc2[nH]nc(-c3cccc(S(C)(=O)=O)c3)c2c1 [Example 34, 5-Cyano-3-methyl-N-(3-(3-(methylsulfonyl)phenyl)-1H-indazol-5-yl)picolinamide] | < 100 nM | < 100 nM |
| Cc1cc(C#N)cnc1C(=O)Nc1ccc2[nH]nc(-c3ccc(C(F)(F)F)cc3)c2c1 [Example 35, 5-Cyano-3-methyl-N-(3-(4-(trifluoromethyl)phenyl)-1H-indazol-5-yl)picolinamide] | 100 to 1000 nM | > 10000 nM |
| Cc1cc(C#N)cnc1C(=O)Nc1ccc2[nH]nc(-c3cnoc3C)c2c1 [Example 36, 5-Cyano-3-methyl-N-(3-(5-methylisoxazol-4-yl)-1H-indazol-5-yl)picolinamide] | < 100 nM | > 10000 nM |
| Cc1cc(C#N)cnc1C(=O)Nc1ccc2[nH]nc(-c3cncc(N4CCOCC4)c3)c2c1 [Example 37, 5-Cyano-3-methyl-N-(3-(5-morpholinopyridin-3-yl)-1H-indazol-5-yl)picolinamide] | < 100 nM | 100 to 1000 nM |
| Cc1cc(C#N)cnc1C(=O)Nc1ccc2[nH]nc(-c3ccc(OC(C)C)nc3)c2c1 [Example 38, 5-Cyano-N-(3-(6-isopropoxypyridin-3-yl)-1H-indazol-5-yl)-3-methylpicolinamide] | < 100 nM | 100 to 1000 nM |
| N#Cc1cnc(C(=O)Nc2ccc3[nH]nc(-c4ccoc4)c3c2)cc1O [Example 39, 5-Cyano-N-(3-(furan-3-yl)-1H-indazol-5-yl)-4-hydroxypicolinamide] | 1000 to 10000 nM | 1000 to 10000 nM |
| Cc1cc(C#N)cnc1C(=O)Nc1ccc2[nH]nc(-c3ccccc3)c2c1 [Example 40, 5-Cyano-3-methyl-N-(3-phenyl-1H-indazol-5-yl)picolinamide] | < 100 nM | 100 to 1000 nM |
| Cc1cc(C#N)cnc1C(=O)Nc1ccc2[nH]nc(-c3cccc(C#N)c3)c2c1 [Example 41, 5-Cyano-N-(3-(3-cyanophenyl)-1H-indazol-5-yl)-3-methylpicolinamide] | < 100 nM | 100 to 1000 nM |
| Cc1cc(C#N)cnc1C(=O)Nc1ccc2[nH]nc(-c3cncc(C#N)c3)c2c1 [Example 42, 5-Cyano-N-(3-(5-cyanopyridin-3-yl)-1H-indazol-5-yl)-3-methylpicolinamide] | < 100 nM | 100 to 1000 nM |
| Cc1nc(C#N)n(C)c1C(=O)Nc1ccc2[nH]nc(-c3ccccc3)c2c1 [Example 43, 2-Cyano-1,4-dimethyl-N-(3-phenyl-1H-indazol-5-yl)-1H-imidazole-5-carboxamide] | < 100 nM | 100 to 1000 nM |
| Cc1cc(C#N)c(C)nc1C(=O)Nc1ccc2[nH]nc(-c3ccoc3)c2c1 [Example 44, 5-Cyano-N-(3-(furan-3-yl)-1H-indazol-5-yl)-3,6-dimethylpicolinamide] | < 100 nM | < 100 nM |
